# In patent US8338403B2, “Drug for improving hyperglycemia” (Morinaga Milk Industry Co., Ltd., priority 2004, dated 2012):
# Experiments:
# [1] = system: db/db mice (type-II diabetes model mice); test: Test Example 1: hemoglobin A1c lowering action and hyperglycemic condition improving effect, 40-day oral administration; assay type: in vivo; conditions: male db/db mice; for changes over time in random blood glucose levels / changes over time in fasting blood glucose levels / Hemoglobin A1c relative levels (%) 35th day from the administration: oral 1 mL of 1 μg/mL once a day; for changes over time in random blood glucose levels / changes over time in fasting blood glucose levels: 40 consecutive days; for changes over time in random blood glucose levels: FIG. 1; for changes over time in fasting blood glucose levels: after 15 hours of fasting, FIG. 2; for Hemoglobin A1c relative levels (%) 35th day from the administration: negative sample = 100
# Description: This test was performed in order to evaluate the hemoglobin A1c lowering action and the hyperglycemic condition improving effect of the compounds of the present invention.
# The compound 2 (4-methylcholest-7-en-3-ol), compound 3 (4-methylergost-7-en-3-ol) and compound 4 (4-methylstigmast-7-en-3-ol) produced in Preparation Example 1 mentioned above were used as test samples 1, 2 and 3, respectively.
# Six-week old male db/db mice (purchased from Clea Japan, Inc.) were used as type-II diabetes model mice. These mice were divided into groups, each consisting of 7 animals. Each test sample was dissolved in DMSO, and the concentration was adjusted to 1 μg/mL with physiological saline. The final DMSO concentration was adjusted to 0.2%. […] The type-II diabetes model mice were orally administered with 1 mL of any of the test sample solutions once a day everyday with a sonde for 40 consecutive days. Further, β-sitosterol (Tama Biochemical Co., Ltd.) was administered to the model mice as a control sample 1. Fasting blood glucose levels and random blood glucose levels were measured over time by using Antisense II (Bayer-Sankyo Co., Ltd.). The fasting blood glucose levels were measured after 15 hours of fasting. Further, on the 35th day from the start of the administration, hemoglobin A1c levels were measured by using DCA 2000 (Bayer-Sankyo Co., Ltd.).
# [2] = system: db/db mice (type-II diabetes model mice); test: Test Example 2: hemoglobin A1c lowering action compared with a clinical antidiabetic drug, 22-day oral administration; assay type: in vivo; conditions: male db/db mice; for Hemoglobin A1c relative levels (%) 23th day from the administration: oral 1 mL once a day for 22 days (test samples 1 μg/mL; control sample 2 7.5 μg/mL pioglitazone hydrochloride), negative sample = 100; for decrease in hemoglobin A1c level in comparison with the negative sample: oral once a day, 23rd day
# Description: Six-week old male db/db mice (purchased from Clea Japan, Inc.) were used as type-II diabetes model mice. These mice were divided into groups, each consisting of 7 animals. Each test sample was dissolved in DMSO, and the concentration was adjusted to 1 μg/mL with physiological saline. The final DMSO concentration was adjusted to 0.2%. […] Further, as a control sample 2, ACTOS® tablets (Takeda Pharmaceutical Co., Ltd.) were ground in a mortar and dissolved in physiological saline so that the concentration of pioglitazone hydrochloride as the active ingredient should become 7.5 μg/mL.
Compound,changes over time in random blood glucose levels [1],changes over time in fasting blood glucose levels [1],Hemoglobin A1c relative levels (%) 35th day from the administration ([1]; 35th day) [%],"decrease in hemoglobin A1c level in comparison with the negative sample ([1]; oral once a day, 35th day)","hemoglobin A1c lowering effect (in words) ([1]; oral once a day, 35th day)",Hemoglobin A1c relative levels (%) 23th day from the administration [2] [%],decrease in hemoglobin A1c level in comparison with the negative sample [2]
"CC[C@H](CC[C@@H](C)[C@H]1CC[C@H]2[C@@H]3CC=C4C[C@@H](O)CC[C@]4(C)[C@H]3CC[C@]12C)C(C)C [control sample 1, β-sitosterol, reference compound]",rapid increases were observed,rapid increases were observed,94.8 ± 8.5,about 0.5%,almost no hemoglobin A1c lowering effect was observed,,
"CC(C)CCCC(C)C1CCC2C3=CCC4C(C)C(O)CCC4(C)C3CCC21C (stereo not shown) [test sample 1, 4-methylcholest-7-en-3-ol]",effect of suppressing the increase in blood glucose levels was clearly observed,effect of suppressing the increase in blood glucose levels was clearly observed,80.2 ± 19.2,,,89.9 ± 9.0,about 11%
"CC(C)C(C)CCC(C)C1CCC2C3=CCC4C(C)C(O)CCC4(C)C3CCC21C (stereo not shown) [test sample 2, 4-methylergost-7-en-3-ol]",effect of suppressing the increase in blood glucose levels was clearly observed,effect of suppressing the increase in blood glucose levels was clearly observed,82.7 ± 21.0,,,91.0 ± 6.7,about 11%
"CCC(CCC(C)C1CCC2C3=CCC4C(C)C(O)CCC4(C)C3CCC21C)C(C)C (stereo not shown) [test sample 3, 4-methylstigmast-7-en-3-ol]",effect of suppressing the increase in blood glucose levels was clearly observed,effect of suppressing the increase in blood glucose levels was clearly observed,77.8 ± 12.2,,,88.8 ± 9.0,
